Experimental findings from patent publication US20240158392A1 (Janssen Biotech, Inc., priority 2021, published 2024) are described below.

The target in this assay is SIK2 (Homo sapiens, UniProt Q9H0K1). As to the kind of experiment: SIK2 Enzymatic Assay High Version 2 (High ATP). The class given is biochemical. Conditions: enzyme 6 nM, 6 mM ATP and 400 μM HDAC5tide (each 2× final concentration); 30 minutes pre-incubation, 2 hours; ADP-Glo Max luminescence; read-out: SIK2 high ATP IC50 (μM) (Test Example 2). The essentials:
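At room temperature, enzyme (6 nM, 2× final) was preincubated with compound for 30 min, then 6 mM ATP and 400 μM HDAC5tide (both 2× final) were added for 2 h. ADP formed was measured by ADP-Glo Max (2 h reagent, 1 h detection) using luminescence.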
A general note: ADP-Glo turns the ADP formed in a reaction into a luminescent signal.

SIK2, sequence (Q9H0K1 whole entry, species assumed): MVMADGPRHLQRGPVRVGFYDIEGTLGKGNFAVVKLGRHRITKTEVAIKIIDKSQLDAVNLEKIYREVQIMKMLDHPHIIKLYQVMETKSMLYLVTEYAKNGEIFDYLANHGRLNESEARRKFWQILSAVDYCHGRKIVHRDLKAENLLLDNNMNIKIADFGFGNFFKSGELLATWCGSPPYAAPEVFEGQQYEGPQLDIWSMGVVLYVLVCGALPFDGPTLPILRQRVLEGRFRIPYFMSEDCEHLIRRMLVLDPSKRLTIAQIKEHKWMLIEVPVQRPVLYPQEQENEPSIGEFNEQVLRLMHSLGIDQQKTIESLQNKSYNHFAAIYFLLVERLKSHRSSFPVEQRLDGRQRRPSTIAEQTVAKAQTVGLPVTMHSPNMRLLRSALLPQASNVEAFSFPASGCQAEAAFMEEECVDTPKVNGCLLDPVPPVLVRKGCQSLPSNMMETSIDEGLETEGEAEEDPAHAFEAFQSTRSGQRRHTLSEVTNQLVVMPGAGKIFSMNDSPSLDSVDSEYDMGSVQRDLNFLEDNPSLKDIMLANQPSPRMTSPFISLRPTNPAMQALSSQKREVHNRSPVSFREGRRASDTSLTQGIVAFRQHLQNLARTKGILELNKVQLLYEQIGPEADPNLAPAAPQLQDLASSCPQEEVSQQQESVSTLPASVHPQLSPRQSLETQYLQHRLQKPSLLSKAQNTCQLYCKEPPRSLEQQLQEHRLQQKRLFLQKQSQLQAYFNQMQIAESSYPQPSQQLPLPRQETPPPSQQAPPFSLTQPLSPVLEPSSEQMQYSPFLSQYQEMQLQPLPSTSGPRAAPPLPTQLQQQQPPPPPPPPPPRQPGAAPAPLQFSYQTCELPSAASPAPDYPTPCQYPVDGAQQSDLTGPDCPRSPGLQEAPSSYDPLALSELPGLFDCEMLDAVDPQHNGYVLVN

On to `Cc1cc(-c2ccn3nc(NC(=O)C4CC4)cc3c2)c(OC[C@]2(F)CCN(C)C2)cn1` (single isomer, unassigned) [Example 519, (*S)—N-[5-[5-[(3-fluoro-1-methyl-pyrrolidin-3-yl)methoxy]-2-methyl-4-pyridyl]pyrazolo[1,5-a]pyridin-2-yl]cyclopropanecarboxamide], for which the IC50 was 0.0251 µM.
For the compound `Cc1cc(-c2ccn3nc(NC(=O)C4CC4)cc3c2)c(OC[C@@]2(O)CCN(C)C2)cn1` (single isomer, unassigned) [Example 522, (*R)—N-[5-[5-[(3-hydroxy-1-methyl-pyrrolidin-3-yl)methoxy]-2-methyl-4-pyridyl]pyrazolo[1,5-a]pyridin-2-yl]cyclopropanecarboxamide], the IC50 was 0.013 µM.
The figure for `Cc1cc(-c2ccn3nc(Nc4cc(C)nc(C)n4)cc3c2)c(O[C@@H]2COC(C)(C)C2)cn1` (single isomer, unassigned) [Example 533, (*S)—N-(2,6-dimethylpyrimidin-4-yl)-5-[5-(5,5-dimethyltetrahydrofuran-3-yl)oxy-2-methyl-4-pyridyl]pyrazolo[1,5-a]pyridin-2-amine] is 0.00543 µM; for `Cc1cc(-c2ccn3nc(Nc4cc(C)nc(C)n4)cc3c2)c(O[C@H]2COC[C@H]2C)cn1` (single isomer, unassigned) [Example 534, (3*R, 4*R)—N-(2,6-dimethylpyrimidin-4-yl)-5-[2-methyl-5-(4-methyltetrahydrofuran-3-yl)oxy-4-pyridyl]pyrazolo[1,5-a]pyridin-2-amine] it is 0.0145 µM.
On to `Cc1cc(-c2ccn3nc(Nc4cc(C)nc(C)n4)cc3c2)c(OC[C@]2(C)CCOC2)cn1` (single isomer, unassigned) [Example 535, (*R)—N-(2,6-dimethylpyrimidin-4-yl)-5-[2-methyl-5-[(3-methyltetrahydrofuran-3-yl)methoxy]-4-pyridyl]pyrazolo[1,5-a]pyridin-2-amine], for which the IC50 is 0.0107 µM.
In the case of `Cc1cc(-c2ccn3nc(Nc4cc(C)nc(C)n4)cc3c2)c(OC[C@@]2(C)CCOC2)cn1` (single isomer, unassigned) [Example 536, (*S)—N-(2,6-dimethylpyrimidin-4-yl)-5-[2-methyl-5-[(3-methyltetrahydrofuran-3-yl)methoxy]-4-pyridyl]pyrazolo[1,5-a]pyridin-2-amine] it was 0.0535 µM; in that of `Cc1cc(-c2ccn3nc(Nc4cc(C)nc(C)n4)cc3c2)c(OC[C@@H]2COC(C)(C)C2)cn1` (single isomer, unassigned) [Example 539, (*R)—N-(2,6-dimethylpyrimidin-4-yl)-5-[5-[(5,5-dimethyltetrahydrofuran-3-yl)methoxy]-2-methyl-4-pyridyl]pyrazolo[1,5-a]pyridin-2-amine], 0.0606 µM; in that of `Cc1cc(-c2ccn3nc(Nc4cc(C)nc(C)n4)cc3c2)c(OC[C@H]2COC(C)(C)C2)cn1` (single isomer, unassigned) [Example 540, (*S)—N-(2,6-dimethylpyrimidin-4-yl)-5-[5-[(5,5-dimethyltetrahydrofuran-3-yl)methoxy]-2-methyl-4-pyridyl]pyrazolo[1,5-a]pyridin-2-amine], 0.0585 µM.
Consider `Cc1cc(-c2ccn3nc(Nc4cc(C)nc(C)n4)cc3c2)c(OC[C@@H]2COC3(CCCC3)O2)cn1` (single isomer, unassigned) [Example 543, (*R)—N-(2,6-dimethylpyrimidin-4-yl)-5-[5-(6,9-dioxaspiro[4.4]nonan-8-ylmethoxy)-2-methyl-4-pyridyl]pyrazolo[1,5-a]pyridin-2-amine], for which the IC50 is 0.016 µM.
Take `Cc1cc(-c2ccn3nc(Nc4cc(C)nc(C)n4)cc3c2)c(OC[C@H]2COC3(CCCC3)O2)cn1` (single isomer, unassigned) [Example 544, (*S)—N-(2,6-dimethylpyrimidin-4-yl)-5-[5-(6,9-dioxaspiro[4.4]nonan-8-ylmethoxy)-2-methyl-4-pyridyl]pyrazolo[1,5-a]pyridin-2-amine]: the IC50 stood at 0.0147 µM.
`Cc1cc(-c2ccn3nc(Nc4cc(C)nc(C)n4)cc3c2)c(OCC2CC(=O)N(C)C2)cn1` (single isomer, unassigned) [Example 547, (*R)-4-[[4-[2-[(2,6-dimethylpyrimidin-4-yl)amino]pyrazolo[1,5-a]pyridin-5-yl]-6-methyl-3-pyridyl]oxymethyl]-1-methyl-pyrrolidin-2-one]: the IC50 came out at 0.014 µM.
In the case of `Cc1cc(-c2ccn3nc(Nc4cc(C)nc(C)n4)cc3c2)c(OC[C@H](O)C2(C)CC2)cn1` (single isomer, unassigned) [Example 548, (*R)-2-[[4-[2-[(2,6-dimethylpyrimidin-4-yl)amino]pyrazolo[1,5-a]pyridin-5-yl]-6-methyl-3-pyridyl]oxy]-1-(1-methylcyclopropyl)ethanol], the IC50 amounted to 0.0462 µM.
For `Cc1cc(-c2ccn3nc(Nc4cc(C)nc(C)n4)cc3c2)c(OC[C@@H](O)C2(C)CC2)cn1` (single isomer, unassigned) [Example 549, (*S)-2-[[4-[2-[(2,6-dimethylpyrimidin-4-yl)amino]pyrazolo[1,5-a]pyridin-5-yl]-6-methyl-3-pyridyl]oxy]-1-(1-methylcyclopropyl)ethanol], the IC50 came out at 0.0416 µM.
As to `Cc1cc(-c2ccn3nc(Nc4cc(C)nc(C)n4)cc3c2)c(O[C@H]2COC(C)(C)C2)cn1` (single isomer, unassigned) [Example 577, (*R)—N-(2,6-dimethylpyrimidin-4-yl)-5-[5-(5,5-dimethyltetrahydrofuran-3-yl)oxy-2-methyl-4-pyridyl]pyrazolo[1,5-a]pyridin-2-amine], the IC50 was determined as 0.0724 µM.
With `Cc1cc(-c2ccn3nc(Nc4cc(C)nc(C)n4)cc3c2)c(O[C@H]2CCOC(C)(C)C2)cn1` (single isomer, unassigned) [Example 578, (*S)—N-(2,6-dimethylpyrimidin-4-yl)-5-[5-(2,2-dimethyltetrahydropyran-4-yl)oxy-2-methyl-4-pyridyl]pyrazolo[1,5-a]pyridin-2-amine], the IC50 amounted to 0.0998 µM.
The figure for `Cc1cc(-c2ccn3nc(NC(=O)C4CC4)cc3c2)c(O[C@@H]2CCC[C@H](O)C2)cn1` (single isomer, unassigned) [Example 602, (1*R, 3*S)—N-[5-[5-(3-hydroxycyclohexoxy)-2-methyl-4-pyridyl]pyrazolo[1,5-a]pyridin-2-yl]cyclopropanecarboxamide] is 0.113 µM; for `Cc1cc(-c2ccn3nc(NC(=O)C4CC4)cc3c2)c(OCC(C)(O)C2CC2)cn1` (single isomer, unassigned) [Example 603, (*S)—N-[5-[5-(2-cyclopropyl-2-hydroxy-propoxy)-2-methyl-4-pyridyl]pyrazolo[1,5-a]pyridin-2-yl]cyclopropanecarboxamide] it is 0.202 µM.
In the case of `Cc1cc(-c2ccn3nc(NC(=O)C4CC4)cc3c2)c(OC[C@@]2(C)CCN2C)cn1` (single isomer, unassigned) [Example 604, (*R)—N-[5-[5-[(1,2-dimethylazetidin-2-yl)methoxy]-2-methyl-4-pyridyl]pyrazolo[1,5-a]pyridin-2-yl]cyclopropanecarboxamide] it was 0.203 µM.
In the case of `Cc1cc(-c2ccn3nc(Nc4cc(C)nc(C)n4)cc3c2)c(OC[C@H]2CC3(CCC3)CO2)cn1` (single isomer, unassigned) [Example 607, (*R)—N-(2,6-dimethylpyrimidin-4-yl)-5-[2-methyl-5-(7-oxaspiro[3.4]octan-6-ylmethoxy)-4-pyridyl]pyrazolo[1,5-a]pyridin-2-amine] it was 0.1 µM.

Usually IC50 stands for the point on the concentration scale where inhibition reaches its midpoint.
